The structures appear in SMILES notation.

A word on the IC50: it is the concentration at which inhibition is half-maximal. Read a low IC50 as higher potency.

Holding throughout (test): Cell proliferation inhibition experiment, CellTiter-Glo (CTG) method
Holding throughout (assay type): cell-based
(ATP-based viability assays read luminescence as a measure of living cells.)

One experiment relates to A-431. The settings on record: Homo sapiens, A-431, 72 h, A-431 cells, 3 days. The procedure, abridged: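 For each line, compound is added at nine threefold-spaced concentrations, highest 30 μM (A-431) or 1.111 μM (NCI-H1975, PC-9), and cells grow 3 days at 37 °C. CellTiter-Glo luminescence gives survival relative to solvent control, fitted to yield IC50.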
For a further experiment, the system named is PC-9. The settings on record: Homo sapiens, PC-9, 72 h, PC-9 cells, 3 days. In short, it runs like this: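 Cells in log-phase growth (viability above 90% by trypan blue) were seeded at 90 μL per well in black-walled, clear-bottom 96-well plates and incubated overnight at 37° C., 5% CO2. A T0 plate was read the next day. Test compounds were added at nine concentrations in triplicate with a solvent control. Viability was measured by CellTiter-Glo luminescence on EnVision, and IC50 came from non-linear S-curve fitting in GraphPad Prism 5.0.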

The test system of the next experiment is NCI-H1975. The settings on record: for IC50: Homo sapiens, NCI-H1975, 72 h, NCI-H1975 cells, CTG, 3 days; for A-431/NCI-H1975 Selectivity: ratio of A-431 IC50 to NCI-H1975 IC50. In short, it runs like this: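 NCI-H1975 cells with viability above 90% by trypan blue were seeded at 90 μL per well in black 96-well plates and incubated overnight at 37° C., 5% CO2. Compounds were added at nine concentrations in triplicate, and viability was measured with CellTiter-Glo luminescence on EnVision. IC50 came from non-linear S-curve fitting in GraphPad Prism 5.0.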

For the molecule `C=CC(=O)Nc1cc(Nc2nccc(-c3ccc4c(cnn4C)c3)n2)c(OC)cc1N1C[C@@H](C)N(C)[C@@H](C)C1` [compound 229], the IC50 with A-431 is 1620 nM; in the experiment with PC-9 it was 68.1 nM; in the experiment on NCI-H1975 it was 93.8 nM. For the same molecule, in the experiment with NCI-H1975, the “A-431/NCI-H1975 Selectivity” value is 17.3.

As for `C=CC(=O)Nc1cc(Nc2nccc(-c3ccc4c(cnn4C)c3)n2)c(OC)cc1N1CCC(N2CCN(C)CC2)CC1` [compound 230], the IC50 in the experiment on A-431 amounted to 1980 nM; in the experiment with PC-9, 59.4 nM; in the experiment with NCI-H1975 it was 68.2 nM. Also, the “A-431/NCI-H1975 Selectivity” value in the experiment on NCI-H1975 is recorded as 29.1.

On to `C=CC(=O)Nc1cc(Nc2nccc(-c3ccc4c(cnn4C)c3)n2)c(OC)cc1N(C)C1CCN(C)CC1` [compound 231], for which the IC50 in the experiment on A-431 was found to be 1730 nM; in the experiment on PC-9 it was 76.5 nM; in the experiment with NCI-H1975, 96.8 nM. Besides, the “A-431/NCI-H1975 Selectivity” value in the experiment on NCI-H1975 was 17.8.

Regarding `C=CC(=O)Nc1cc(Nc2nccc(-c3ccc4c(cnn4C)c3)n2)c(OC)cc1N1CCN(CCOC)CC1` [compound 232], the IC50 in the experiment on A-431 was 2560 nM; in the experiment with PC-9, 82.7 nM; in the experiment on NCI-H1975, 90.2 nM. In addition, in the experiment on NCI-H1975, the “A-431/NCI-H1975 Selectivity” value is on record as 28.4.

Regarding `C=CC(=O)Nc1cc(Nc2nccc(-c3ccc4c(cnn4C)c3)n2)c(OC)cc1N1CCC(N2C[C@@H](C)N(C)[C@@H](C)C2)CC1` [compound 233], the half-inhibitory concentration (IC50) in the experiment with A-431 stood at 2440 nM; in the experiment on PC-9 it was 54.9 nM; in the experiment with NCI-H1975, 71.4 nM. The “A-431/NCI-H1975 Selectivity” value in the experiment on NCI-H1975 was 34.1.

In the case of `C=CC(=O)Nc1cc(Nc2nccc(-c3ccc4c(cnn4C)c3)n2)c(OC)cc1N1CCC(N2CCN(C(C)C)CC2)CC1` [compound 234], the IC50 with A-431 turned out to be 2460 nM; with PC-9, 32.7 nM; in the experiment with NCI-H1975, 80.1 nM. For the same molecule, in the experiment with NCI-H1975, the “A-431/NCI-H1975 Selectivity” value is recorded as 30.7.

For `C=CC(=O)Nc1cc(Nc2nccc(-c3ccc4c(cnn4C)c3)n2)c(OC)cc1N1CCN(C2CCOCC2)CC1` [compound 235], the 50% inhibitory concentration (IC50) came out at 2400 nM in the experiment on A-431, 24.9 nM with PC-9 and 94 nM with NCI-H1975. Besides, the “A-431/NCI-H1975 Selectivity” value in the experiment on NCI-H1975 stood at 25.5.

Turning to `C=CC(=O)Nc1cc(Nc2nccc(-c3ccc4c(cnn4C)c3)n2)c(OC)cc1N1CCC(N2C[C@@H](C)O[C@@H](C)C2)CC1` [compound 236], the IC50 stood at 2080 nM with A-431, 38.7 nM in the experiment on PC-9 and 60 nM in the experiment with NCI-H1975. In addition, the “A-431/NCI-H1975 Selectivity” value with NCI-H1975 stood at 34.7.

`C=CC(=O)Nc1cc(Nc2nccc(-c3ccc4c(cnn4C)c3)n2)c(OC)cc1OCCN(C)C` [compound 237]: the IC50 in the experiment on A-431 came to 1820 nM; with PC-9, 44.5 nM; in the experiment on NCI-H1975, 21.7 nM. Further, the “A-431/NCI-H1975 Selectivity” value in the experiment with NCI-H1975 was found to be 84.1.

Take `C=CC(=O)Nc1cc(Nc2nccc(-c3ccc4c(cnn4C(C)C)c3)n2)c(OC)cc1N(C)CCN(C)C` [compound 238]: the IC50 with A-431 came to 1940 nM; in the experiment with PC-9, 99.4 nM; with NCI-H1975, 51.6 nM. For the same molecule, in the experiment on NCI-H1975, the “A-431/NCI-H1975 Selectivity” value turned out to be 37.6.

For the molecule `C=CC(=O)Nc1cc(Nc2nccc(-c3ccc4c(cnn4C)c3)n2)c(OC)cc1N(C)CCN(CC)CC` [compound 239], the IC50 came to 1580 nM with A-431, 67.9 nM in the experiment with PC-9 and 33 nM in the experiment with NCI-H1975. Moreover, the “A-431/NCI-H1975 Selectivity” value in the experiment on NCI-H1975 was 47.8.

On to `C=CC(=O)Nc1cc(Nc2nccc(-c3ccc4c(cnn4CC)c3)n2)c(OC)cc1N(C)CCN(CC)CC` [compound 240], for which the IC50 amounted to 2980 nM in the experiment on A-431, 110 nM in the experiment on PC-9 and 62 nM with NCI-H1975. Further, the “A-431/NCI-H1975 Selectivity” value in the experiment with NCI-H1975 amounted to 48.0.

As to `C=CC(=O)Nc1cc(Nc2nccc(-c3ccc4c(cnn4C)c3)n2)c(OC)cc1N(C)CCN(C)CC` [compound 241], the IC50 with A-431 was 1040 nM; with PC-9 it was 211 nM; in the experiment on NCI-H1975, 22.9 nM. Further, the “A-431/NCI-H1975 Selectivity” value in the experiment with NCI-H1975 was determined as 45.3.

`C=CC(=O)Nc1cc(Nc2nccc(-c3ccc4c(cnn4C)c3)n2)c(OCC)cc1N(C)CCN(C)C` [compound 242]: the half-maximal inhibitory concentration (IC50) came to 1200 nM with A-431, 28.1 nM in the experiment on PC-9 and 26.7 nM in the experiment on NCI-H1975. For the same molecule, the “A-431/NCI-H1975 Selectivity” value in the experiment on NCI-H1975 was 45.0.

(Values after patent publication US11352352B2, “Aminopyrimidine compound, preparation method therefor and use thereof” (BEIJING ADAMADLE BIOTECHNOLOGY LIMITED LIABILITY COMPANY, priority 2017, dated 2022).)
